From patent US9346809B2 (LEO PHARMA A/S, priority 2009, dated 2016)
Where two headings read alike, the source gives them in different places.

Experiments:
Assay type in all cases: biochemical
[1] = molecular target: T1, JAK1 (aa 850-1154, catalytic domain, GST-tag) (Homo sapiens, UniProt P23458); experiment: JAK kinase assay (HTRF, phosphorylation of TK substrate-biotin), JAK1; settings: ATP at Km (7 μM)
T1 construct: JAK1 (aa 850-1154) and TYK2 (aa 871-1187) are expressed with an N-terminally fused GST-tag; GST (N); purchased Carna Biosciences, Inc; host or cells: baculovirus expression system
T1 sequence (P23458 850-1154): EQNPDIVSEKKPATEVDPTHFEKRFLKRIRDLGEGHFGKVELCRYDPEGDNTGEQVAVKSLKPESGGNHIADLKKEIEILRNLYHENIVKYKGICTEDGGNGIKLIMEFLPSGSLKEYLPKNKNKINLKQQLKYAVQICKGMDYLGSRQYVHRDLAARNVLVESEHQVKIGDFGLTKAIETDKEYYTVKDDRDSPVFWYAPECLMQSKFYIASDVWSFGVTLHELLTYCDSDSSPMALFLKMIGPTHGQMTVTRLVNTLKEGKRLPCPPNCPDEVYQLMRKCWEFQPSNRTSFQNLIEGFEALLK
Method in brief: (§1)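 Baculovirus-expressed catalytic domains phosphorylated 1 μM TK substrate-biotin in 50 mM Hepes pH 7.0 with ATP at Km (JAK1 7 μM, JAK2 4 μM, JAK3 2 μM, TYK2 13 μM) for 20-30 min at RT. EDTA/KF stop, streptavidin-XL665 plus cryptate antibody overnight; HTRF signal gave EC50.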

[2] = molecular target: T2, JAK2 (catalytic domain, His-tag) (Homo sapiens, UniProt O60674); experiment: JAK kinase assay (HTRF, phosphorylation of TK substrate-biotin), JAK2; settings: ATP at Km (4 μM)
T2 construct: All four purified enzymes contain only the catalytic domain; His (N); purchased Carna Biosciences, Inc; host or cells: baculovirus expression system
T2 sequence (O60674 849-1124 limits assumed): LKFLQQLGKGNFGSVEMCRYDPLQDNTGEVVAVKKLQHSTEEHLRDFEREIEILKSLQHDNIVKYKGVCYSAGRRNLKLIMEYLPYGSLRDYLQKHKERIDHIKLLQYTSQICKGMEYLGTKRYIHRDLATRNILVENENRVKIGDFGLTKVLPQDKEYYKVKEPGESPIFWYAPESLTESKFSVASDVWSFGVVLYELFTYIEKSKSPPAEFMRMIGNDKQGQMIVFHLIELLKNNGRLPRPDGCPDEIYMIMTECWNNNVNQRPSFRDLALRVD
Method in brief: as §1

[3] = molecular target: T3, JAK3 (catalytic domain, His-tag) (Homo sapiens, UniProt P52333); experiment: JAK kinase assay (HTRF, phosphorylation of TK substrate-biotin), JAK3; settings: ATP at Km (2 μM)
T3 construct: All four purified enzymes contain only the catalytic domain; His (N); purchased Carna Biosciences, Inc; host or cells: baculovirus expression system
T3 sequence (P52333 822-1111 limits assumed): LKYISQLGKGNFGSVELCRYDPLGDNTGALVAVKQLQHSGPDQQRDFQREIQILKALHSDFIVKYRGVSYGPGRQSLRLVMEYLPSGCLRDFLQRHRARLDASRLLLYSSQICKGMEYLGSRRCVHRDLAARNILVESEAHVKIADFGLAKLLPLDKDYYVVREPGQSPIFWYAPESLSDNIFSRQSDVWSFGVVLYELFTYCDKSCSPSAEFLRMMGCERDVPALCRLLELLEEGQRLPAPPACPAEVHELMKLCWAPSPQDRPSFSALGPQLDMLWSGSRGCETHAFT
Method in brief: as §1

[4] = molecular target: T4, TYK2 (aa 871-1187, catalytic domain, GST-tag) (Homo sapiens, UniProt P29597); experiment: JAK kinase assay (HTRF, phosphorylation of TK substrate-biotin), TYK2; settings: ATP at Km (13 μM)
T4 construct: JAK1 (aa 850-1154) and TYK2 (aa 871-1187) are expressed with an N-terminally fused GST-tag; GST (N); purchased Carna Biosciences, Inc; host or cells: baculovirus expression system
T4 sequence (P29597 871-1187): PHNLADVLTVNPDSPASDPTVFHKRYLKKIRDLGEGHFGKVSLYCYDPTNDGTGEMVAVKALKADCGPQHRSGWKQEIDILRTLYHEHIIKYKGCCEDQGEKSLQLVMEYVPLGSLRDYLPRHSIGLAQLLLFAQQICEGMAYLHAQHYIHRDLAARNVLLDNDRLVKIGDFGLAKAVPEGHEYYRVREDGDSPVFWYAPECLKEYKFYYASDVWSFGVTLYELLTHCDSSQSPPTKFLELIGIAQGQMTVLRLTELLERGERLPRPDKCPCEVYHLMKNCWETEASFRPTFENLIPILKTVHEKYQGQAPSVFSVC
Method in brief: as §1

[5] = read-out: JAK1 kinase inhibitory activity (EC50 indicator)
[6] = read-out: JAK2 kinase inhibitory activity (EC50 indicator)
[7] = read-out: JAK3 kinase inhibitory activity (EC50 indicator)
[8] = read-out: TYK2 kinase inhibitory activity (EC50 indicator)
[9] = HTRF assay, read-out: JAK1 kinase inhibitory activity (EC50 indicator)
[10] = HTRF assay, read-out: JAK2 kinase inhibitory activity (EC50 indicator)
[11] = HTRF assay, read-out: JAK3 kinase inhibitory activity (EC50 indicator)
[12] = HTRF assay, read-out: TYK2 kinase inhibitory activity (EC50 indicator)

| EC50 [1, 5] [nM] | EC50 [2, 6] [nM] | EC50 [3, 7] [nM] | EC50 [4, 8] [nM] | EC50 [1, 9] [nM] | EC50 [2, 10] [nM] | EC50 [3, 11] [nM] | EC50 [4, 12] [nM] | further results | SMILES |
| --- | --- | --- | --- | --- | --- | --- | --- | --- | --- |
| < 100 | < 100 | < 100 | < 100 |  |  |  |  |  | O=C(c1cnc2ccccc2n1)N1CCN(c2ncnc3[nH]ccc23)CC12CC2 [Example 161, [7-(7H-Pyrrolo[2,3-d]pyrimidin-4-yl)-4,7-diaza-spiro[2.5]oct-4-yl]-quinoxalin-2-yl-methanone] |
|  |  |  |  | < 100 | < 100 | < 100 | 100 to 500 |  | Cc1cc(S(N)(=O)=O)ccc1C(=O)N1CCN(c2ncnc3[nH]ccc23)CC12CC2 [Example 379, 3-Methyl-4-[7-(7H-pyrrolo[2,3-d]pyrimidin-4-yl)-4,7-diaza-spiro[2.5]octane-4-carbonyl]-benzenesulfonamide] |
|  |  |  |  | < 100 | < 100 | 100 to 500 | 100 to 500 |  | N#Cc1ccc(C(=O)N2CCN(c3ncnc4[nH]ccc34)CC23CC3)cc1F [Example 219, 2-Fluoro-4-[7-(7H-pyrrolo[2,3-d]pyrimidin-4-yl)-4,7-diaza-spiro[2.5]octane-4-carbonyl]-benzonitrile] |
| < 100 | < 100 | < 100 | 100 to 500 |  |  |  |  |  | O=C(C(=O)N1CCN(c2ncnc3[nH]ccc23)CC12CC2)c1cccs1 [Example 205, 1-[7-(7H-Pyrrolo[2,3-d]pyrimidin-4-yl)-4,7-diaza-spiro[2.5]oct-4-yl]-2-thiophen-2-yl-ethane-1,2-d lone] |
| < 100 | < 100 | 100 to 500 | > 500 |  |  |  |  |  | O=C(CC1CCCC1)N1[C@@H]2CC[C@H]1CN(c1ncnc3[nH]ccc13)C2 [Example 38, 2-Cyclopentyl-1-[3-(7H-pyrrolo[2,3-d]pyrimidin-4-yl)-3,8-diazabicyclo[3.2.1]oct-8-yl]ethanone] |
|  |  |  |  | 100 to 500 | 100 to 500 | > 500 | > 500 |  | O=C(c1cccnc1)N1CCN(c2ccnc3[nH]ccc23)CC12CC2 [Example 223, Pyridin-3-yl-[7-(1H-pyrrolo[2,3-b]pyridin-4-yl)-4,7-diaza-spiro[2.5]oct-4-yl]-methanone] |
| 100 to 500 | 100 to 500 | > 500 | > 500 |  |  |  |  |  | O=C(CC(F)(F)F)N1[C@@H]2CC[C@H]1CN(c1ncnc3[nH]ccc13)C2 [Example 40, 3,3,3-Trifluoro-1-[3-(7H-pyrrolo[2,3-d]pyrimidin-4-yl)-3,8-diaza-bicyclo[3.2.1]oct-8-yl]propan-1-one] |
|  |  |  |  |  |  |  |  | EC50 ([1]; HTRF assay, read-out: JAK1 kinase inhibitory activity (EC50)): < 100 nM; EC50 ([2]; HTRF assay, read-out: JAK2 kinase inhibitory activity (EC50)): < 100 nM; EC50 ([3]; HTRF assay, read-out: JAK3 kinase inhibitory activity (EC50)): < 100 nM; EC50 ([4]; HTRF assay, read-out: TYK2 kinase inhibitory activity (EC50)): < 100 nM | NS(=O)(=O)c1ccc(OCC(=O)N2CCN(c3ncnc4[nH]ccc34)CC23CC3)c(F)c1 [Example 434, 3-Fluoro-4-{2-oxo-2-[7-(7H-pyrrolo[2,3-d]pyrimidin-4-yl)-4,7-diaza-spiro[2.5]oct-4-yl]-ethoxy}-benzenesulfonamide] |
|  |  |  |  | < 100 | < 100 | 100 to 500 | 100 to 500 |  | Nc1nc(N2CCN(C(=O)c3cnc4ccccc4n3)C3(CC3)C2)c2cc[nH]c2n1 [Example 305, [7-(2-Amino-7H-pyrrolo[2,3-d]pyrimidin-4-yl)-4,7-diaza-spiro[2.5]oct-4-yl]-quinoxalin-2-yl-methanone] |
| 100 to 500 | 100 to 500 | 100 to 500 | > 500 |  |  |  |  |  | O=C(Cc1c[nH]c2ccccc12)N1[C@@H]2CC[C@@H]1CN(c1ncnc3[nH]ccc13)C2 [Example 170, 2-(1H-Indol-3-yl)-1-[3-(7H-pyrrolo[2,3-d]pyrimidin-4-yl)-3,8-diaza-bicyclo[3.2.1]oct-8-yl]-ethanone] |
|  |  |  |  | < 100 | < 100 | < 100 | > 500 |  | NS(=O)(=O)c1cccc(CC(=O)N2CCN(c3ncnc4[nH]ccc34)CC23CC3)c1 [Example 398, 3-{2-Oxo-2-[7-(7H-pyrrolo[2,3-d]pyrimidin-4-yl)-4,7-diaza-spiro[2.5]oct-4-yl]-ethyl}-benzenesulfonamide] |
| < 100 | < 100 | < 100 | > 500 |  |  |  |  |  | COc1cc(C(=O)N2[C@@H]3CC[C@H]2CN(c2ncnc4[nH]ccc24)C3)cs1 [Example 108, (5-Methoxy-thiophen-3-yl)-[3-(7H-pyrrolo[2,3-d]pyrimidin-4-yl)-3,8-diaza-bicyclo[3.2.1]oct-8-yl]-methanone] |
|  |  |  |  | 100 to 500 | 100 to 500 | 100 to 500 | > 500 |  | N#Cc1ccccc1CC(=O)N1[C@@H]2CC[C@@H]1CN(c1ncnc3[nH]ccc13)C2 [Example 250, 2-{2-Oxo-2-[3-(7H-pyrrolo[2,3-d]pyrimidin-4-yl)-3,8-diaza-bicyclo[3.2.1]oct-8-yl]-ethyl}-benzonitrile] |
|  |  |  |  | 100 to 500 | < 100 | 100 to 500 | > 500 |  | N#Cc1ccccc1C(=O)N1[C@@H]2CC[C@@H]1CN(c1ncnc3[nH]ccc13)C2 [Example 249, 2-[3-(7H-Pyrrolo[2,3-d]pyrimidin-4-yl)-3,8-diaza-bicyclo[3.2.1]octane-8-carbonyl]-benzonitrile] |
| < 100 | < 100 | < 100 | > 500 |  |  |  |  |  | O=C(c1cc2cc(F)cc(F)c2[nH]1)N1C2CCC1CN(c1ncnc3[nH]ccc13)C2 [Example 140, (5,7-Difluoro-1H-indol-2-yl)-[3-(7H-pyrrolo[2,3-d]pyrimidin-4-yl)-3,8-diaza-bicyclo[3.2.1]oct-8-yl]-methanone] |
|  |  |  |  | > 500 | > 500 | > 500 | > 500 |  | COC(=O)c1cc2c(N3CCN(C(=O)CCCC#N)C4(CC4)C3)ncnc2[nH]1 [Example 339, 4-[4-(4-Cyano-butyryl)-4,7-diaza-spiro[2.5]oct-7-yl]-7H-pyrrolo[2,3-d]pyrimidine-6-carboxylic acid methyl ester] |
| 100 to 500 | < 100 | 100 to 500 | > 500 |  |  |  |  |  | O=C(C1CCc2ccccc21)N1CCN(c2ncnc3[nH]ccc23)CC12CC2 (stereo not shown) [Example 105, Indan-1-yl-[7-(7H-pyrrolo[2,3-d]pyrimidin-4-yl)-4,7-diaza-spiro[2.5]oct-4-yl]-methanone] |
|  |  |  |  | < 100 | < 100 | 100 to 500 | < 100 |  | Cc1c(C(=O)N2CCN(c3ncnc4[nH]ccc34)CC23CC3)sc2ccccc12 [Example 296, (3-Methyl-benzo[b]thiophen-2-yl)-[7-(7H-pyrrolo[2,3-d]pyrimidin-4-yl)-4,7-diaza-spiro[2.5]oct-4-yl]-methanone] |
| < 100 | < 100 | < 100 | < 100 |  |  |  |  |  | N#Cc1cccc(C(=O)N2CCN(c3ncnc4[nH]ccc34)CC23CC3)c1 [Example 44, 3-[7-(7H-Pyrrolo[2,3-d]pyrimidin-4-yl)-4,7-diazaspiro[2.5]octane-4-carbonyl]benzonitrile] |
| < 100 | < 100 | < 100 | 100 to 500 |  |  |  |  |  | N#Cc1cccc(C(=O)N2[C@@H]3CC[C@@H]2CN(c2ncnc4[nH]ccc24)C3)c1 [Example 173, 3-[3-(7H-Pyrrolo[2,3-d]pyrimidin-4-yl)-3,8-diaza-bicyclo[3.2.1]octane-8-carbonyl]-benzonitrile] |
| > 500 | > 500 | > 500 | > 500 |  |  |  |  |  | CC(=O)NCC(=O)N1[C@@H]2CC[C@@H]1CN(c1ncnc3[nH]ccc13)C2 [Example 34, N-{2-Oxo-2-[3-(7H-pyrrolo[2,3-d]pyrimidin-4-yl)-3,8-diaza-bicyclo[3.2.1]oct-8-yl]-ethyl}acetamide] |
| < 100 | < 100 | 100 to 500 | > 500 |  |  |  |  |  | O=C(c1ccc(C(F)(F)F)cc1)N1CCN(c2ncnc3[nH]ccc23)CC12CC2 [Example 48, [7-(7H-Pyrrolo[2,3-d]pyrimidin-4-yl)-4,7-diaza-spiro[2.5]oct-4-yl]-(4-trifluoromethylphenyl)methanone] |
